According to ChEMBL document CHEMBL1772971, “Novel 18F-labeled benzofuran derivatives with improved properties for positron emission tomography (PET) imaging of β-amyloid plaques in Alzheimer's brains” (J Med Chem, 2011):
pKi: −log10 of the molar value. Active and inactive are the calls of the source. The rule behind the calls is not given here.

What was measured:
[1] = Displacement of [125I]IMPY from amyloid beta (1 to 42) after 3 hrs by gamma counting
[2] = target: Amyloid-beta precursor protein (Homo sapiens) (UniProt P05067); assay: Binding affinity to beta amyloid plaques in normal human brain at 444 kBq/50 uL after 1 hr by autoradiography; details: tested as the 18F-labelled form
[3] = tested on: Brain; assay: Ratio of drug level in brain after 2 mins to brain after 60 mins in ddY mouse […] at 185 to 370 kBq, iv; type: ADME, organism-based; details: in vivo

Chain of Amyloid-beta precursor protein (Homo sapiens) (P05067 whole entry): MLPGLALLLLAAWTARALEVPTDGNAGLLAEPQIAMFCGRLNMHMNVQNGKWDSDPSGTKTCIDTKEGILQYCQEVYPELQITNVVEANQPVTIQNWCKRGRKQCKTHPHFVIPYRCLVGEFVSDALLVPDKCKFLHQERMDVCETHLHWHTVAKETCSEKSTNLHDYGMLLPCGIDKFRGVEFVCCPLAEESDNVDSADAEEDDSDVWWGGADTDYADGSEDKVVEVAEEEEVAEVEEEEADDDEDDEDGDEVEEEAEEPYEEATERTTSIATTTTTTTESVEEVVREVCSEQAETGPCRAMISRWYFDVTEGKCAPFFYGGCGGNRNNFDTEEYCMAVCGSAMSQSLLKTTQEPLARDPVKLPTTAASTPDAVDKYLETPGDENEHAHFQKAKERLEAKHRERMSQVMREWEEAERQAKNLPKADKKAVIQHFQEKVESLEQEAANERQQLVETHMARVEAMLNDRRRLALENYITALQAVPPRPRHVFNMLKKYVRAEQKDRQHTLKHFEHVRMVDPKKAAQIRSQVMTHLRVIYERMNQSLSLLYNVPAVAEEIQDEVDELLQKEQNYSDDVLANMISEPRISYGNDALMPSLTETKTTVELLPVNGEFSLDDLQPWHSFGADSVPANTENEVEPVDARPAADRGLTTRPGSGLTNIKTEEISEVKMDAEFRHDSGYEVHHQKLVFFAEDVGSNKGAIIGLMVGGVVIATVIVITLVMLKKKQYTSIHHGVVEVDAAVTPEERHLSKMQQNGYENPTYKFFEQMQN

Row | Structure (SMILES) | pKi [1] | Activity [2] | Ratio [3]
1 | CNc1ccc(-c2nc3ccc(O)cc3s2)cc1 [PITTSBURGH COMPOUND B UNLABELLED] | 8.05 | – | –
2 | CNc1ccc(-c2cc3cc(OCCOCCOCCF)ccc3o2)cc1 | 8.41 | inactive | –
3 | CNc1ccc(/C=C/c2ccc(OCCOCCOCC[18F])cc2)cc1 [FLORBETABEN F18] | – | – | 4.8

Other lines, results leading:

Row | pKi [1] | Activity [2] | Ratio [3] | Structure (SMILES)
4 | 9.02 | – | – | CN(C)c1ccc(-c2cc3cc(OCCOCCOCCF)ccc3o2)cn1
5 | 8.70 | – | – | CN(C)c1ccc(-c2cc3cc(OCCOCCOCCF)ccc3o2)cc1
